Experiments:
[1] = test system: 6-hydroxydopamine-treated neonatal rats; experiment: Locomotor activity in 6-hydroxydopamine-treated neonatal rats; type: in vivo, rat
Description: Methods: Female neonatal SD rats were used for the experiments. 100 μg 6-Hydroxydopamine (6-HODA) was dissolved in a 0.1% solution of ascorbic acid in saline, and the obtained solution or 0.1% ascorbic acid in saline (control) was injected first at 3 days of age into the left lateral ventricle of the rat and secondly at 6 days of age into the right lateral ventricle of the rat. At 30-37 days, locomotor activity was measured by placing the rat in a transparent acrylic box (50×50×50 cm) 60 minutes after the drug administration using digital counters with infrared sensors (Scanet MV-10MT; Toyo Sangyo Co. Ltd., Toyama, Japan).
Compound (I) was suspended in a 0.3% aqueous Tween 80 solution, and administered orally to 6-HODA treated rats.

[2] = test system: 6-hydroxydopamine-treated young rats; experiment: Tic/Tourette like symptoms in 6-hydroxydopamine-treated young rats; type: in vivo, rat
Description: Methods: 6-HODA was injected into the left medial forebrain bundle of a rat to induce a unilateral lesion of dopaminergic neurons, followed by repeated oral administration of L-DOPA at 20 mg/kg twice daily for 2 weeks to make a rat model of tic-like symptoms.
Tic-like, abnormal involuntary movements were observed after day 3 during repetitive treatment with L-DOPA. Two subtypes of involuntary movements were classified as axial (lateral torsion of the head, neck and trunk towards the side contralateral to the lesion, including swing of the head) and forelimb (abnormal movements contralateral to the lesion, including kicking movements of the forelimb).
The severity of these movements was assigned a score from 0 to 4 to each movement as follows.
(score 0) no deviation of head
(score 1) lateral deviation of head: […]
(score 2) lateral deviation of head: more than 30°, and 60° or less
(score 3) torsion of head and upper trunk: more than 60°, and 90° or less
(score 4) torsion of head and trunk: more than 90°
(score 0) no movements of both distal and proximal forelimbs
(score 1) tiny oscillatory movements of the distal forelimb
(score 2) movements of low amplitude but causing visible translocation of both distal and proximal forelimbs
(score 3) translocation of the whole limb with visible contraction of shoulder muscles
(score 4) vigorous limb and shoulder movements of maximal amplitude
Compound (I) was repeatedly administered orally to 6-HODA treated rats at 1 mg/kg for 23 days, and Tic-like, abnormal involuntary movements were observed every 10 minutes for 3 hours, each time for one minute.
Peak score was obtained by adding the peak score for forelimb to that for axial (Data are expressed as mean±standard deviation in the following Table 1). Peak time means the time after the first administration when peak score was score observed.

young rats = experiment: Acquisition of a delayed alternation task in young rats; type: in vivo, rat; conditions: for Choice reaction times per session (mean ± s.e.m.) / Simple reaction times per session (mean ± s.e.m.): 0.3 mg/kg p.o. -60 min
Description: The following experiment was carried out according to a method described in Drug Dev. Res., 35, p. 83-95 (1996) with a slight modification. Methods: Male Rj: Wistar (Han) rats were used for the experiments. Before being tested, the rats were given the standard diet each day. Several 45 mg food pellets (these were also used in the delayed alternation sessions described below) were also given them to habituate them to this novel food.
The aim of this phase is to train rats, on the presentation of a single centralized retractable lever, to press on it to receive a food pellet.
The rats were subjected to 10 lever-pressing acquisition sessions in the experimental chambers according to a fixed ratio (FR1) schedule of reinforcement. Reinforcement consists of food pellets (45 mg) delivered after each lever-press. Each daily session lasts 15 minutes. All rats received an intraperitoneal administration of physiological saline 30 minutes before each session. During the first 7 sessions, the Skinner boxes were equipped with only one fixed lever situated centrally above the food receptacle, to avoid spatial preference for the right or the left side of the experimental panel. After the 7th lever-pressing session, the boxes were equipped with two retractable levers located on either side of the food receptacle. The rats were then subjected to 3 consecutive sessions in which the left or the right lever was pseudo-randomly presented every 5 seconds. At the end of this phase 80 to 100% of the rats acquired the lever press-response. […] If some rats were close to establishing steady lever-pressing behavior they were given extra training with the aim of attaining at least 10 rats per group. Rats were assigned to treatment groups matched on the basis of their performance.
Subsequent to lever-press acquisition sessions, all rats were subjected to delayed alternation sessions. The test was conducted for 5 days. During this phase, the boxes were equipped with two retractable levers on each side of the food distributor. Each session consisted of 35 successive trials every 10 seconds. In each trial, the rat was first presented with one lever (left or right). When the rat pressed on the lever, the rat was given a food pellet, the lever was retracted and 5 seconds later two levers were presented. The rat had to learn to press on the lever opposite to that previously presented to gain a food pellet (non-matching to sample).
Compound (I) was suspended in 0.5% methylcellulose in distilled water and administered orally 60 minutes before each session.
The effect of Compound (I) was evaluated by measuring simple reaction time, which means the reaction time to each one-lever presentation, and choice reaction time, which means the reaction time to each two-lever presentation.

dd-strain male mice = experiment: Acute toxicity test; type: in vivo; conditions: oral administration, mortality seven days after administration
Text: Compound (I) was orally or intraperitoneally administered to groups of dd-strain male mice weighing 20±1 g, each group consisting of three mice.

[3] = 1 mg/kg orally, compared with before administration
[4] = 0.3 mg/kg orally, compared with vehicle control rats

`CCn1c(=O)c2c(nc(/C=C/c3ccc(OC)c(OC)c3)n2C)n(CC)c1=O` [Compound (I), (E)-8-(3,4-dimethoxystyryl)-1,3-diethyl-7-methylxanthine] was tested, and the locomotor activity ([1]; 6-HODA treated rats, 1.25 mg/kg orally, measured 60 minutes after administration) was “decreased locomotor activities”, the locomotor activity ([1]; 6-HODA treated rats, 5 mg/kg orally, measured 60 minutes after administration) was “decreased locomotor activities” and the locomotor activity ([1]; control rats treated only with 0.1% ascorbic acid in saline (vehicle), oral) was “increased locomotor activities”. For the same molecule, the peak score [2, 3] was “decreased”, the peak time [2, 3] was “decreased” and the peak time ([2]; L-DOPA + compound 1 mg/kg p.o., Day 1) was 30 min. The peak score ([2]; L-DOPA + compound 1 mg/kg p.o., Day 1, n = 6, mean ± standard deviation, forelimb + axial) was 5.6 ± 1.4, the peak time ([2]; L-DOPA + compound 1 mg/kg p.o., Day 9) was 40 min and the peak score ([2]; L-DOPA + compound 1 mg/kg p.o., Day 9, n = 6, mean ± standard deviation, forelimb + axial) was 4.4 ± 1.6. For the same molecule, the peak time ([2]; L-DOPA + compound 1 mg/kg p.o., Day 23) was 20 min, the peak score ([2]; L-DOPA + compound 1 mg/kg p.o., Day 23, n = 6, mean ± standard deviation, forelimb + axial) was 1.6 ± 0.6 and the choice reaction times (young rats; [4]) was “significantly decreased”. The simple reaction times (young rats; [4]) was “significantly decreased”, the “Choice reaction times per session (mean ± s.e.m.)” value (shortened to “Choice reaction times per session”) (young rats; session S1) was 1.71 ± 0.13 s and the “Simple reaction times per session (mean ± s.e.m.)” value (“Simple reaction times per session” for short) (young rats; session S1) was 3.16 ± 0.24 s. The “Choice reaction times per session” value (young rats; session S2) was 1.52 ± 0.10 s, the “Simple reaction times per session” value (young rats; session S2) was 2.49 ± 0.28 s and the “Choice reaction times per session” value (young rats; session S3) was 1.22 ± 0.12 s. The “Simple reaction times per session” value (young rats; session S3) was 1.63 ± 0.20 s, the “Choice reaction times per session” value (young rats; session S4) was 1.13 ± 0.18 s and the “Simple reaction times per session” value (young rats; session S4) was 1.73 ± 0.21 s. For the same molecule, the “Choice reaction times per session” value (young rats; session S5) was 0.92 ± 0.09 s, the “Simple reaction times per session” value (young rats; session S5) was 1.33 ± 0.11 s and the “minimum lethal dose (MLD)” value (dd-strain male mice) was “greater than 1000 mg/kg”.

From patent US20090023755A1, “USE OF ISTRADEFYLLINE FOR TREATING BEHAVIORAL DISORDERS” (KYOWA HAKKO KOGYO CO., LTD., priority 2002, published 2009)
